Source: patent US20020052295A1, “Diacyl derivatives of propylene diamine having herbicidal activity” (priority 1999, published 2002)

Columns and labels:
ABUTH [1] = assay: Post-emergence herbicidal activity on ABUTH (velvetleaf); assay type: in vivo, Abutilon theophrasti; conditions: post-emergence spray; lowest tested rate with 80% or greater inhibition; about 14 days after treatment
From the text: (§1) All such uses, and the biological activity enabling such uses, are embraced by the term “herbicidal” herein. Tables 15 and 16 summarize results of tests conducted as described below to determine the pre-emergence herbicidal activity, in the form of a GR80 value, of illustrative compounds of this invention. […] Where herbicidal activity was evident but 80% inhibition was not achieved at the highest rate tested (typically 1000 g/ha), an asterisk (*) is shown in the following tables. Herbicidal activity evident in the form of symptoms of phytotoxicity, in the absence of at least 80% inhibition at any rate, is indicated in the tables by “phyto”. A blank cell in the following tables indicates no herbicidal or phytotoxic response at any rate tested.
(§2) In another set of tests, the post-emergence activity of compounds of this invention was evaluated on the cool season species listed above. The following procedure was used.
(§3) A pre-prepared topsoil mixture (described above) was placed in a pot and compacted to a depth of 1.0 to 1.25 cm from the top of the pot. Seeds of each of several monocotyledonous and dicotyledonous annual plant species were placed on top of the soil The seeds were covered with a mixture of 50% topsoil and 50% Rediearth™ in sufficient quantity to level-fill the pots. The pots were then placed on a greenhouse bench and subirrigated as needed until plants growing from the seeds had emerged and reached a suitable growth stage for post-emergence treatment, typically 9 to 14 days after planting.
(§4) A known amount of each test compound dissolved or suspended in an appropriate organic solvent was diluted with a 50:50 mix of acetone and water and applied to the plants by spraying with a standard spray nozzle in a spray volume of 3,100 l/ha at a spray pressure of […] (30 psig). Control plants were not sprayed.
(§5) After treatment the plants were placed in a greenhouse with a 30/21° C. day/night temperature regime and were subsequently watered as needed for growth. Approximately 14 days after treatment, the plants were observed and herbicidal efficacy recorded as percent inhibition by comparison with control plants.

SOLNI [2] = assay: Post-emergence herbicidal activity on SOLNI (black nightshade); assay type: in vivo, Solanum nigrum; conditions: post-emergence spray; lowest tested rate with 80% or greater inhibition; about 14 days after treatment
From the text: as §1, §2, §3, §4, §5

AMARE [3] = assay: Post-emergence herbicidal activity on AMARE (redroot pigweed); assay type: in vivo, Amaranthus retroflexus; conditions: post-emergence spray; lowest tested rate with 80% or greater inhibition; about 14 days after treatment
From the text: as §1, §2, §3, §4, §5

DATST [4] = assay: Post-emergence herbicidal activity on DATST (jimsonweed); assay type: in vivo, Datura stramonium; conditions: post-emergence spray; lowest tested rate with 80% or greater inhibition; about 14 days after treatment
From the text: as §1, §2, §3, §4, §5

CHEAL [5] = assay: Post-emergence herbicidal activity on CHEAL (common lambsquarters); assay type: in vivo, Chenopodium album; conditions: post-emergence spray; lowest tested rate with 80% or greater inhibition; about 14 days after treatment
From the text: as §1, §2, §3, §4, §5

POROL [6] = assay: Post-emergence herbicidal activity on POROL (common purslane; table head prints PORAL); assay type: in vivo, Portulaca oleracea; conditions: post-emergence spray; lowest tested rate with 80% or greater inhibition; about 14 days after treatment
From the text: as §1, §2, §3, §4, §5

CIRAR [7] = assay: Post-emergence herbicidal activity on CIRAR (canada thistle, seedling); assay type: in vivo, Cirsium arvense; conditions: post-emergence spray; lowest tested rate with 80% or greater inhibition; about 14 days after treatment
From the text: as §1, §2, §3, §4, §5

ECHCG [8] = assay: Post-emergence herbicidal activity on ECHCG (barnyardgrass); assay type: in vivo, Echinochloa crus-galli; conditions: post-emergence spray; lowest tested rate with 80% or greater inhibition; about 14 days after treatment
From the text: as §1, §2, §3, §4, §5

PANMI [9] = assay: Post-emergence herbicidal activity on PANMI (wild proso millet); assay type: in vivo, Panicum miliaceum; conditions: post-emergence spray; lowest tested rate with 80% or greater inhibition; about 14 days after treatment
SORHA [10] = assay: Post-emergence herbicidal activity on SORHA (johnsongrass, seedling); assay type: in vivo, Sorghum halepense; conditions: post-emergence spray; lowest tested rate with 80% or greater inhibition; about 14 days after treatment
From the text: as §1, §2, §3, §4, §5

PANDI [11] = assay: Post-emergence herbicidal activity on PANDI (fall panicum); assay type: in vivo, Panicum dichotomiflorum; conditions: post-emergence spray; lowest tested rate with 80% or greater inhibition; about 14 days after treatment
From the text: as §1, §2, §3, §4, §5

SORVU [12] = assay: Post-emergence herbicidal activity on SORVU (shattercane); assay type: in vivo, Sorghum vulgare; conditions: post-emergence spray; lowest tested rate with 80% or greater inhibition; about 14 days after treatment
From the text: as §1, §2, §3, §4, §5

BRAPP [13] = assay: Post-emergence herbicidal activity on BRAPP (broadleaf signalgrass); assay type: in vivo, Brachiaria platyphylla; conditions: post-emergence spray; lowest tested rate with 80% or greater inhibition; about 14 days after treatment
From the text: as §1, §2, §3, §4, §5

DIGSA [14] = assay: Post-emergence herbicidal activity on DIGSA (large crabgrass); assay type: in vivo, Digitaria sanguinalis; conditions: post-emergence spray; lowest tested rate with 80% or greater inhibition; about 14 days after treatment
SOLNI [15] = assay: Pre-emergence herbicidal activity on SOLNI (black nightshade); assay type: in vivo, Solanum nigrum; conditions: lowest tested rate giving 80% or greater inhibition, approx. 14 days after planting and treating, greenhouse
Method in brief: (§6)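 GR80 values come from percent inhibition relative to untreated plants, rated roughly 14 days after planting and treating, with rates up to typically 1000 g/ha. Compound was sprayed onto the soil over freshly covered seeds as a dilution in 50:50 acetone/water; pots kept in greenhouse at 30/21° C. day/night after 0.64 cm overhead watering.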

CIRAR [16] = assay: Pre-emergence herbicidal activity on CIRAR (canada thistle, seedling); assay type: in vivo, Cirsium arvense; conditions: lowest tested rate giving 80% or greater inhibition, approx. 14 days after planting and treating, greenhouse
Method in brief: as §6

ECHCG [17] = assay: Pre-emergence herbicidal activity on ECHCG (barnyardgrass); assay type: in vivo, Echinochloa crus-galli; conditions: lowest tested rate giving 80% or greater inhibition, approx. 14 days after planting and treating, greenhouse
Method in brief: as §6

PANMI [18] = assay: Pre-emergence herbicidal activity on PANMI (wild proso millet); assay type: in vivo, Panicum miliaceum; conditions: lowest tested rate giving 80% or greater inhibition, approx. 14 days after planting and treating, greenhouse
Method in brief: as §6

SETFA [19] = assay: Pre-emergence herbicidal activity on SETFA (giant foxtail); assay type: in vivo, Setaria faberi; conditions: lowest tested rate giving 80% or greater inhibition, approx. 14 days after planting and treating, greenhouse
Method in brief: as §6

BRAPP [20] = assay: Pre-emergence herbicidal activity on BRAPP (broadleaf signalgrass); assay type: in vivo, Brachiaria platyphylla; conditions: lowest tested rate giving 80% or greater inhibition, approx. 14 days after planting and treating, greenhouse
Method in brief: as §6

DIGSA [21] = assay: Pre-emergence herbicidal activity on DIGSA (large crabgrass); assay type: in vivo, Digitaria sanguinalis; conditions: lowest tested rate giving 80% or greater inhibition, approx. 14 days after planting and treating, greenhouse
Method in brief: as §6

CONAR [22] = assay: Post-emergence herbicidal activity on CONAR (field bindweed); assay type: in vivo, Convolvulus arvensis; conditions: post-emergence spray; lowest tested rate with 80% or greater inhibition; about 14 days after treatment
From the text: as §1, §2, §3, §4, §5

SETFA [23] = assay: Post-emergence herbicidal activity on SETFA (giant foxtail); assay type: in vivo, Setaria faberi; conditions: post-emergence spray; lowest tested rate with 80% or greater inhibition; about 14 days after treatment
From the text: as §1, §2, §3, §4, §5

ABUTH [24] = assay: Pre-emergence herbicidal activity on ABUTH (velvetleaf); assay type: in vivo, Abutilon theophrasti; conditions: lowest tested rate giving 80% or greater inhibition, approx. 14 days after planting and treating, greenhouse
Method in brief: as §6

AMARE [25] = assay: Pre-emergence herbicidal activity on AMARE (redroot pigweed); assay type: in vivo, Amaranthus retroflexus; conditions: lowest tested rate giving 80% or greater inhibition, approx. 14 days after planting and treating, greenhouse
Method in brief: as §6

DATST [26] = assay: Pre-emergence herbicidal activity on DATST (jimsonweed); assay type: in vivo, Datura stramonium; conditions: lowest tested rate giving 80% or greater inhibition, approx. 14 days after planting and treating, greenhouse
Method in brief: as §6

CHEAL [27] = assay: Pre-emergence herbicidal activity on CHEAL (common lambsquarters); assay type: in vivo, Chenopodium album; conditions: lowest tested rate giving 80% or greater inhibition, approx. 14 days after planting and treating, greenhouse
Method in brief: as §6

CONAR [28] = assay: Pre-emergence herbicidal activity on CONAR (field bindweed); assay type: in vivo, Convolvulus arvensis; conditions: lowest tested rate giving 80% or greater inhibition, approx. 14 days after planting and treating, greenhouse
Method in brief: as §6

POROL [29] = assay: Pre-emergence herbicidal activity on POROL (common purslane); assay type: in vivo, Portulaca oleracea; conditions: lowest tested rate giving 80% or greater inhibition, approx. 14 days after planting and treating, greenhouse
Method in brief: as §6

SORHA [30] = assay: Pre-emergence herbicidal activity on SORHA (johnsongrass, seedling); assay type: in vivo, Sorghum halepense; conditions: lowest tested rate giving 80% or greater inhibition, approx. 14 days after planting and treating, greenhouse
Method in brief: as §6

PANDI [31] = assay: Pre-emergence herbicidal activity on PANDI (fall panicum); assay type: in vivo, Panicum dichotomiflorum; conditions: lowest tested rate giving 80% or greater inhibition, approx. 14 days after planting and treating, greenhouse
Method in brief: as §6

SORVU [32] = assay: Pre-emergence herbicidal activity on SORVU (shattercane); assay type: in vivo, Sorghum vulgare; conditions: lowest tested rate giving 80% or greater inhibition, approx. 14 days after planting and treating, greenhouse
Method in brief: as §6

SMILES	Post-emergence activity (GR80) ABUTH (ABUTH [1])	Post-emergence activity (GR80) SOLNI (SOLNI [2])	Post-emergence activity (GR80) AMARE (AMARE [3])	Post-emergence activity (GR80) DATST (DATST [4])	Post-emergence activity (GR80) CHEAL (CHEAL [5])	Post-emergence activity (GR80) PORAL (POROL [6])	Post-emergence activity (GR80) ECHCG (ECHCG [8])	Post-emergence activity (GR80) PANMI (PANMI [9])	Post-emergence activity (GR80) SORHA (SORHA [10])	Post-emergence activity (GR80) PANDI (PANDI [11])	Post-emergence activity (GR80) SORVU (SORVU [12])	Post-emergence activity (GR80) BRAPP (BRAPP [13])	Post-emergence activity (GR80) DIGSA (DIGSA [14])	Pre-emergence activity (GR80) on SOLNI (SOLNI [15])	Pre-emergence activity (GR80) on CIRAR (CIRAR [16]) [g/ha]	Pre-emergence activity (GR80) on ECHCG (ECHCG [17])	Pre-emergence activity (GR80) on PANMI (PANMI [18])	Pre-emergence activity (GR80) on SETFA (SETFA [19])	Pre-emergence activity (GR80) on BRAPP (BRAPP [20])	Pre-emergence activity (GR80) on DIGSA (DIGSA [21]) [g/ha]	other results
O=C(NCC(CO)NC(=O)c1cccc(C(F)(F)F)c1)c1cccc(C(F)(F)F)c1 (stereo not shown) [Example 11, N,N′-(3-hydroxy-1,2-propanediylbis)-3-(trifluoromethyl)benzamide]	[empty]	[empty]	phyto	phyto	[empty]	[empty]	[empty]	[empty]	[empty]	[empty]	[empty]	[empty]	[empty]	–	–	–	–	–	–	–	Post-emergence activity (GR80) CIRAR (CIRAR [7]): [empty]
C=C(C)CSc1ccccc1C(=O)NC(C)CNC(=O)c1cccc(C(F)(F)F)c1 (stereo not shown) [Example 124]	phyto	phyto	phyto	phyto	[empty]	phyto	[empty]	[empty]	[empty]	[empty]	[empty]	[empty]	[empty]	phyto	1000	phyto	phyto	phyto	phyto	1000	Post-emergence activity (GR80) CONAR (CONAR [22]): phyto; Post-emergence activity (GR80) SETFA (SETFA [23]): [empty]
CCSc1ncccc1C(=O)NC(C)CNC(=O)c1cccc(C(F)(F)F)c1 (stereo not shown) [Example 243, 2-ethylthio-N-[1-methyl-2-(3-trifluoromethyl)phenylcarbonylamino]ethyl-3-pyridinecarboxamide]	phyto	phyto	phyto	750 g/ha	phyto	* (Where herbicidal activity was evident but 80% inhibition was not achieved at the highest rate tested (typically 1000 g/ha), an asterisk (*) is shown)	[empty]	[empty]	[empty]	[empty]	[empty]	[empty]	[empty]	250 g/ha	250	1000 g/ha	750 g/ha	500 g/ha	500 g/ha	500	Pre-emergence activity (GR80) on ABUTH (ABUTH [24]): 500 g/ha; Pre-emergence activity (GR80) on AMARE (AMARE [25]): 750 g/ha; Pre-emergence activity (GR80) on DATST (DATST [26]): 250 g/ha; Pre-emergence activity (GR80) on CHEAL (CHEAL [27]): 250 g/ha; Pre-emergence activity (GR80) on CONAR (CONAR [28]): 250 g/ha; Pre-emergence activity (GR80) on PORAL (POROL [29]): 250 g/ha; Pre-emergence activity (GR80) on SORHA (SORHA [30]): * (Where herbicidal activity was evident but 80% inhibition was not achieved at the highest rate tested (typically 1000 g/ha), an asterisk (*) is shown); Pre-emergence activity (GR80) on PANDI (PANDI [31]): 500 g/ha; Pre-emergence activity (GR80) on SORVU (SORVU [32]): phyto; Post-emergence activity (GR80) CONAR (CONAR [22]): * (Where herbicidal activity was evident but 80% inhibition was not achieved at the highest rate tested (typically 1000 g/ha), an asterisk (*) is shown); Post-emergence activity (GR80) SETFA (SETFA [23]): [empty]
